Counter-ions that a name gives are not always drawn.
Key:
Assay type in all cases: in vivo
[1] = system: Redroot pigweed (Amaranthus retroflexus, EPPO Code: AMARE); assay: Effect of adjuvant on performance of 2,4-D Amine, lab spray trial, visual weed control; conditions: 2,4-D amine 0.25 wt % alone, no adjuvant
Description: (§1) Spray Protocol: A lab spray trial was conducted to evaluate the effect of the silane compositions in accordance with the present technology on the performance of various herbicides.
(§2) Target weeds were grown from seed, under controlled conditions in a “Caron Model 7301-50-2” Growth chamber using simulated full sunlight. Sprays were applied to the target weeds at the 4-6 leaf growth stage using a DeVries Generation 4—Research Track Sprayer with a T-Jet 8002E nozzle at an equivalent spray volume of 100 L/ha.
SIL-8 was compared to a conventional trisiloxane alkoxylate (TSA-1) as a spray adjuvant, to improve the performance of 2,4-D Amine (herbicide) on AMARE. The spray protocol is described above. The 2,4-D Amine was applied at a sub lethal dose (25% of label rate) to show the impact of the adjuvant on performance. Assessment of weed control was made by a visual observation as compared to an untreated check.

[2] = system: red banded stink bug (Piezodorus guildinii); assay: Field trial: control of stink bug on green beans with Cefanol acephate plus adjuvant; conditions: Cefanol acephate 0.50 kg/ha alone
Description: A composition of the present invention (SIL-8) was compared to a conventional trisiloxane alkoxylate (TSA-2) for the improvement of the insecticide acephate in the control of stink-bug.
The experiment was conducted with a randomized block design, with 6 treatments (including the untreated check) and 4 repetitions. Each plot was of 12 m^2 in area. The data obtained were subjected to analysis of variance and the average of the treatments compared using the Tukey test to 5% probability test.
During the trial there were […] evaluation periods: 0, 3, 5 and 7 Days After Application (DAA), for determining the number of red banded stink bugs in each plot evaluated.
The treatments were applied using a CO2 pressurized Backpack sprayer, with 4 nozzles spaced 50 cm between each one. Nozzles type XR11002 (Flat Fan) and a spray volume 150 L·ha.

[3] = system: Yellow Foxtail (Setaria pumila); assay: Control of Yellow Foxtail with glyphosate-isopropylamine salt, visual weed control; conditions: glyphosate-isopropylamine salt 0.75% a.i. alone, adjuvant 0
Description: as §1, §2
Glyphosate-isopropylamine salt was applied at 0.75% a.i. to Yellow foxtail at a 15 cm growth-stage. The spray mixtures were applied either as herbicide alone, or in combination with the silane compositions SIL-6, SIL-9 and SIL-12 at an equivalent spray volume of 100 L/ha. A visual assessment of weed control was made at 7 and 14 Days After Treatment (DAT). The application method is the same as previously described.

CNC.O=C(O)COc1ccc(Cl)cc1Cl [2,4-D amine, 2,4-D Amine]
Weed control of AMARE, 7-DAT [1]: 46%
Weed control of AMARE, 14-DAT [1]: 55%

COP(=O)(NC(C)=O)SC (centres unmarked) [Acephate]
Eff. %, 1 DAA [2]: 76.0%
Eff. %, 3 DAA [2]: 60.0%
Eff. %, 5 DAA [2]: 45.5%
Eff. %, 7 DAA [2]: 63.6%
Number of red banded stink bug, 1 DAA [2]: 0.5 b
Number of red banded stink bug, 3 DAA [2]: 0.7 b
Number of red banded stink bug, 5 DAA [2]: 0.5 a
Number of red banded stink bug, 7 DAA [2]: 0.3 b
Eff. %, 0 DAA ([2]; 0 DAA (initial)): 0.0%
Number of red banded stink bug, 0 DAA ([2]; 0 DAA (initial)): 1.8 a

O=C(O)CNCP(=O)(O)O [Glyphosate, Glyphosate-isopropylamine salt]
Weed control of Yellow foxtail, 7 DAT [3]: 20
Weed control of Yellow foxtail, 14 DAT [3]: 92

— US20250120394A1, “SILANE SURFACTANT FOR AGRICULTURAL USE” (MOMENTIVE PERFORMANCE MATERIALS INC., priority 2023, published 2025)
